Where a name gives a salt, the structure may show the parent alone.
How the values were obtained:
[1] = molecular target: T1, human TLR7 (Homo sapiens, UniProt Q9NYK1); assay: HEK-Blue hTLR7 reporter cell assay (SEAP, NF-kB/AP-1) for stimulation of human TLR7; format: cell-based; conditions: HEK-Blue hTLR7 cells; for EC50: 24 h incubation, SEAP readout, read-out: TLR7_EC50
T1 construct: host or cells: HEK293 (HEK-Blue hTLR7)
T1 sequence (Q9NYK1 27-1049): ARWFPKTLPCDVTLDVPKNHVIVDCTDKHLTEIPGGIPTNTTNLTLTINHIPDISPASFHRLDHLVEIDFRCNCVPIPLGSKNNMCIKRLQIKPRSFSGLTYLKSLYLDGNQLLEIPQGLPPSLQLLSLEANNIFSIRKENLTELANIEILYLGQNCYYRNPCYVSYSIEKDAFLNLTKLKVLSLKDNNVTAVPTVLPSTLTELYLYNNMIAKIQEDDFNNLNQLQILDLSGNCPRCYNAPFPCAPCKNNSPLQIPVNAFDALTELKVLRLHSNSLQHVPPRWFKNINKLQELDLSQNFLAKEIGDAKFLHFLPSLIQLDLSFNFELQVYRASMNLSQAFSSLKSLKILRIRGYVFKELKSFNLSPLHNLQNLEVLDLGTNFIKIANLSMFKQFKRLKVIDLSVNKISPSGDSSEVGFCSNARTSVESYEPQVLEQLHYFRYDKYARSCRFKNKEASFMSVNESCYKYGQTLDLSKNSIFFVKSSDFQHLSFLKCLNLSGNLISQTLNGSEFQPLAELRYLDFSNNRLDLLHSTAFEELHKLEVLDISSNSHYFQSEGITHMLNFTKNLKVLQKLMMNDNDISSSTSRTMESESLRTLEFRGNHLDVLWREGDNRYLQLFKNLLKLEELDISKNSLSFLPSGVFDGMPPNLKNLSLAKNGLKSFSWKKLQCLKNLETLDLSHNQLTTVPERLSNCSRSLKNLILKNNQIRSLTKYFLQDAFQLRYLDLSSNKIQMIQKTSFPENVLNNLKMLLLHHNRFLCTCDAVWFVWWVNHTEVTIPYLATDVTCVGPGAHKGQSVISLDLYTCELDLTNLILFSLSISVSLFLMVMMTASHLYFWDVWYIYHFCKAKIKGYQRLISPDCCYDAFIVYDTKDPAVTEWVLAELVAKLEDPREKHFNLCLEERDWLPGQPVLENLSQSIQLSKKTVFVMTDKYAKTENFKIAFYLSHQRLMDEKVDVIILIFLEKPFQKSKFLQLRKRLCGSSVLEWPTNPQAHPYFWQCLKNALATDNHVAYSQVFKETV
Experimental: (§1) The below tests, involving measuring the in vitro activity of some compounds of the disclosure on TLR7 and TLR8, were carried out using the HEK-Blue™ cells as reporter.
The activity described below, with respect to TLR7, TLR8, IFN-α2a, IL-6, IL29 and TNF-α, is given by the half maximal effective concentration (EC50), which corresponds to the concentration required to obtain a 50% of the activation. The lower the EC50, the less the concentration of the compound is required to produce 50% of maximum activation and the higher the potency.
(§2) In Vitro Assay for Studying the Stimulation of Human TLR7 and TLR8:
(§3) HEK-Blue™ hTLR7 Cells (#hkb-htlr7) and HEK-Blue™ hTLR8 Cells (#hkb-htlr8) from InvivoGen were used according to the manufacturer's instructions. These Reporter HEK293 cells were obtained by co-transfection of the hTLR7 or TLR8 gene and an optimized Secreted Embryonic Alkaline Phosphatase (SEAP) reporter gene which is placed under the control of the IFN-β minimal promoter fused to five NF-κB and AP-1-binding sites. Stimulation with a TLR7/8 ligand activates NF-kB and AP-1 which induce the production of SEAP. The cells are seeded in 96-well plate at 3.10E4 cells/well and incubated 18 to 24 h at 37° C., 5% CO2 before adding the compounds to evaluate. The cells are subsequently incubated with 3-fold serial dilutions of each of the compounds (0.01 to 20 μM) for 24 hours at 37° C., 5% CO2. Next, 20 μL of the supernatant is harvested and incubated with 200 μL of QUANTI-Blue™ Solution.

[2] = molecular target: T2, human TLR8 (Homo sapiens, UniProt Q9NR97); assay: HEK-Blue hTLR8 reporter cell assay (SEAP, NF-kB/AP-1) for stimulation of human TLR8; format: cell-based; conditions: HEK-Blue hTLR8 cells; for EC50: 24 h incubation, SEAP readout, read-out: TLR8_EC50
T2 construct: host or cells: HEK293 (HEK-Blue hTLR8)
T2 sequence (Q9NR97 27-1041): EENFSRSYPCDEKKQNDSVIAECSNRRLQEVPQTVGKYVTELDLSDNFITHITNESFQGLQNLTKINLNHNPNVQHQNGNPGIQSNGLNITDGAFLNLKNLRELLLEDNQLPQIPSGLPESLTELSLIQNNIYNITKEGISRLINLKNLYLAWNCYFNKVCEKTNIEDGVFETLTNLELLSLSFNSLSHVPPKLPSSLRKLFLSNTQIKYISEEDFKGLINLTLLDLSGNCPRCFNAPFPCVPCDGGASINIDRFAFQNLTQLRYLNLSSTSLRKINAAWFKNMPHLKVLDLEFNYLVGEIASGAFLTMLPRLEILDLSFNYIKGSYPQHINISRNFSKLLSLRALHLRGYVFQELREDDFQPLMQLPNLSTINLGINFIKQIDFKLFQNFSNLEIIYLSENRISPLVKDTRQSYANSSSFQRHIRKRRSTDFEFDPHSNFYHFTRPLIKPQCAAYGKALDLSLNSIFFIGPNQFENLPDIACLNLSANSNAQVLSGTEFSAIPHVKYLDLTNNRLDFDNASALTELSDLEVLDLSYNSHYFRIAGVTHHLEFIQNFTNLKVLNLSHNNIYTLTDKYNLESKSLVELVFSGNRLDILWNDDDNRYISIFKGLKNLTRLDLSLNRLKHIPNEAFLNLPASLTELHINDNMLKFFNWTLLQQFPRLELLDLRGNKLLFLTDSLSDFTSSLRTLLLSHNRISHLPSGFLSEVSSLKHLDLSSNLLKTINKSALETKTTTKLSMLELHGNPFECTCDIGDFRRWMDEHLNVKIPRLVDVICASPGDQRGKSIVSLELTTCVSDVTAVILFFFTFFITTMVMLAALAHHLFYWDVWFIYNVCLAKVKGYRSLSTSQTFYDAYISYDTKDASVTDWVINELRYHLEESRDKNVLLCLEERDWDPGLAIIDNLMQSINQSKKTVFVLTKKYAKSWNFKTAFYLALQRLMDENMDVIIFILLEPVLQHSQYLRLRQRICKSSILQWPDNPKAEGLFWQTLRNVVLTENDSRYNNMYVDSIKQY
Experimental: as §1, §2
as §3, with “The cells are subsequently incubated with 3-fold serial dilutions of each of the compounds (0.01 to 20 μM) for 24 hours at 37° C., 5% CO2.” left out

Structure (SMILES)	EC50 [1]	EC50 [2]	activation at 20 µM ([1]; 24 h, at 20000 nM)	activation at 20 µM ([2]; 24 h, at 20000 nM)
CCCCc1nc2c(N)nnc(OC3CCSC3)c2n1Cc1ccc(OC)cc1 (centres unmarked) [Compound 58, 2-butyl-1-(4-methoxybenzyl)-7-((tetrahydrothiophen-3-yl)oxy)-1H-imidazo[4,5-d]pyridazin-4-amine]	433 nM	> 20000 nM	–	–
CCCCc1nc2c(N)nnc(NCc3ccc(CN4CCN(C)CC4)cc3)c2n1C [Compound 91, 2-butyl-1-methyl-N7-(4-((4-methylpiperazin-1-yl)methyl)benzyl)-1H-imidazo[4,5-d]pyridazine-4,7-diamine]	–	–	45%	10%
CCCCc1nc2c(N)nnc(C3CCCCC3)c2n1Cc1ccc(OC)cc1 [Compound 51, 2-butyl-7-cyclohexyl-1-(4-methoxybenzyl)-1H-imidazo[4,5-d]pyridazin-4-amine]	1020 nM	> 20000 nM	–	–
CCCCc1nc2c(N)nnc(OC(C)C)c2n1Cc1ccc(CNCCOC)cc1 [Compound 104, 2-butyl-7-isopropoxy-1-(4-(((2-methoxyethyl)amino)methyl)benzyl)-1H-imidazo[4,5-d]pyridazin-4-amine]	22 nM	546 nM	–	–
CCCCc1nc2c(N)nnc(N(C)Cc3ccc(CN4CCOCC4)cc3)c2n1C [Compound 44, 2-butyl-N7,1-dimethyl-N7-(4-(morpholinomethyl)benzyl)-1H-imidazo[4,5-d]pyridazine-4,7-diamine]	1130 nM	467 nM	–	–
CCCCc1nc2c(N)nnc(OC(C)C)c2n1CC1CCCCC1 [Compound 81, 2-butyl-1-(cyclohexylmethyl)-7-isopropoxy-1H-imidazo[4,5-d]pyridazin-4-amine hydrochloride]	117 nM	> 20000 nM	–	–
CCCCc1nc2c(N)nnc(OC3CC[S+]([O-])C3)c2n1Cc1ccc(OC)cc1 (single isomer, unassigned; isomer b) [Compound 69, 3-((4-amino-2-butyl-1-(4-methoxybenzyl)-1H-imidazo[4,5-d]pyridazin-7-yl)oxy)tetrahydrothiophene 1-oxide isomer B]	6760 nM	> 20000 nM	–	–
CCCCc1nc2c(N)nnc(OC(C)C)c2n1Cc1ccc(CNC(=O)c2ccccc2)cc1 [Compound 106, N-(4-((4-amino-2-butyl-7-isopropoxy-1H-imidazo[4,5-d]pyridazin-1-yl)methyl)benzyl)benzamide]	68 nM	–	–	–

Further lines, results first:

EC50 [1]	EC50 [2]	activation at 20 µM ([1]; 24 h, at 20000 nM)	activation at 20 µM ([2]; 24 h, at 20000 nM)	Structure (SMILES)
50 nM	243 nM	–	–	CCCCCCNCc1ccc(Cn2c(CCCC)nc3c(N)nnc(OC(C)C)c32)cc1 [Compound 109, 2-butyl-1-(4-((hexylamino)methyl)benzyl)-7-isopropoxy-1H-imidazo[4,5-d]pyridazin-4-amine]
11200 nM	> 20000 nM	–	–	CCCCc1nc2c(N)nnc(OC(C)C)c2n1CCCCN(C(C)=O)C1CCOCC1 [Compound 151, N-[4-(7-amino-2-butyl-4-isopropoxy-imidazo[4,5-d]pyridazin-3-yl)butyl]-N-tetrahydropyran-4-yl-acetamide]
117 nM	–	–	–	CCCCc1nc2c(N)nnc(OC(C)C)c2n1CCCCCCNC1CS(=O)(=O)C1 [Compound 154, 2-butyl-3-[6-[(1,1-dioxothietan-3-yl)amino]hexyl]-4-isopropoxy-imidazo[4,5-d]pyridazin-7-amine]
93 nM	179 nM	–	–	CCCCc1nc2c(N)nnc(OC(C)C)c2n1Cc1cccc(CNC2CC2)c1 [Compound 127, 2-butyl-1-(3-((cyclopropylamino)methyl)benzyl)-7-isopropoxy-1H-imidazo[4,5-d]pyridazin-4-amine dihydrochloride salt]
29 nM	1400 nM	–	–	CCCCc1nc2c(N)nnc(OC(C)C)c2n1Cc1ccc(CNCCOCCOC)cc1 [Compound 108, 2-butyl-7-isopropoxy-1-(4-(((2-(2-methoxyethoxy)ethyl)amino)methyl)benzyl)-1H-imidazo[4,5-d]pyridazin-4-amine]
296 nM	> 18500 nM	–	–	CCCCc1nc2c(N)nnc(/C=C/C(C)C)c2n1Cc1ccc(CN)cc1 [Compound 132, (E)-1-(4-(aminomethyl)benzyl)-2-butyl-7-(3-methylbut-1-en-1-yl)-1H-imidazo[4,5-d]pyridazin-4-amine]
531 nM	7 nM	–	–	CCCCc1nc2c(N)nnc(OC(C)C)c2n1CC(CO)CO [Compound 157, 2-[(7-amino-2-butyl-4-isopropoxy-imidazo[4,5-d]pyridazin-3-yl)methyl]propane-1,3-diol; hydrochloride]
607 nM	> 20000 nM	–	–	CCCCc1nc2c(N)nnc(OC(C)C)c2n1Cc1cccc(CN2CCNCC2)c1 [Compound 131, 2-butyl-7-isopropoxy-1-(3-(piperazin-1-ylmethyl)benzyl)-1H-imidazo[4,5-d]pyridazin-4-amine]
34.6 nM	> 20000 nM	–	–	CCCCc1nc2c(N)nnc(OC(C)C)c2n1CCCCCCN(C(C)=O)C1CCOCC1 [Compound 148, N-[6-(7-amino-2-butyl-4-isopropoxy-imidazo[4,5-d]pyridazin-3-yl)hexyl]-N-tetrahydropyran-4-yl-acetamide]

Source: patent publication US12583861B2, “Derivatives of imidazo[4,5-d]pyridazine, their preparation and their therapeutic application” (SANOFI, priority 2021, dated 2026)
